Laboratory results: publication PMC3090393, “New Noncovalent Inhibitors of Penicillin-Binding Proteins from Penicillin-Resistant Bacteria” (PLoS ONE, 2011)

Assays:
PBP2a = target: T1, PBP2a (Staphylococcus aureus, UniProt P07944); test: PBP2a enzymatic inhibition assay (fluorescein-labeled ampicillin, residual penicillin binding activity); type: biochemical, Staphylococcus aureus ATCC 43300; conditions: 4 h; residual activity of the enzyme at 1 mM inhibitor; 0.01% Triton X-100; mean of three experiments; read-out: PBP2a RA [%]
T1 construct: made in house
T1 sequence (P07944 whole entry): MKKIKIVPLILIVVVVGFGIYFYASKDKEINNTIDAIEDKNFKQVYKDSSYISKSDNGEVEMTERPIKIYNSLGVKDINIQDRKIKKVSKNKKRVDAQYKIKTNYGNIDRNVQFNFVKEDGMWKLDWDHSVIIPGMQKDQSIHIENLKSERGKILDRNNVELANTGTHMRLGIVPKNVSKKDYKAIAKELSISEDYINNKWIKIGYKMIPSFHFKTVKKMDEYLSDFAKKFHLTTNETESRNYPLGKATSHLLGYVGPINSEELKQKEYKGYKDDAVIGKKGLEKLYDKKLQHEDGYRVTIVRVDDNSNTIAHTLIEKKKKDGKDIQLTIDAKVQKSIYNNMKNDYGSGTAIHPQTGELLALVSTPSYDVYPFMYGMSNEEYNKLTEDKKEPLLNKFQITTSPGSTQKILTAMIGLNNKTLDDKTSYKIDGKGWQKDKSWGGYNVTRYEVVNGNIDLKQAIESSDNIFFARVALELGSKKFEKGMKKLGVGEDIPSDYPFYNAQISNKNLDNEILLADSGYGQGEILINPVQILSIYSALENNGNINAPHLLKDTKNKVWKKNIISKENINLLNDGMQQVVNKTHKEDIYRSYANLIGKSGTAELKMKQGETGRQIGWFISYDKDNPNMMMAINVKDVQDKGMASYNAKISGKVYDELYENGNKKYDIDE
Description: (§1) PBP2a from Staphylococcus aureus ATCC 43300 and PBP5fm from Enterococcus faecium D63r were overproduced and purified as described previously, [18].
(§2) Each of the purified PBPs (2.5 µM) were first incubated with 1 mM potential inhibitor in 100 mM phosphate buffer, 0.01% Triton X-100[19], pH 7, for 4 h at 30°C. Then, 25 µM fluorescein-labeled ampicillin[20] was added to detect the residual penicillin binding activity (RA). The samples were further incubated for 30 min at 37°C in a total volume of 20 µL. Denaturation buffer was added (0.1 M Tris/HCl, pH 6.8, containing 25% glycerol, 2% SDS, 20% β-mercaptoethanol and 0.02% bromophenol blue) and the samples were heated to 100°C for 1 min. The samples were then loaded onto a 10% SDS-acrilamide gel (10×7 cm) and electrophoresis was performed for 45 min at 180 V (12 mA). Detection and quantification of the RAs were with Molecular Image FX equipment and Quantity One software (BioRad, Hercules, CA, USA). Three independent experiments were carried out for each inhibitor.

PBP2x 5204 = PBP2x 5204 (Streptococcus pneumoniae, UniProt P59676); test: PBP2x 5204 enzymatic inhibition assay (S2d hydrolysis, DTNB); type: biochemical, Streptococcus pneumoniae strain 5204; conditions: residual activity of the enzyme at 1 mM inhibitor; 240 min
Sequence of PBP2x 5204 (P59676 49-750): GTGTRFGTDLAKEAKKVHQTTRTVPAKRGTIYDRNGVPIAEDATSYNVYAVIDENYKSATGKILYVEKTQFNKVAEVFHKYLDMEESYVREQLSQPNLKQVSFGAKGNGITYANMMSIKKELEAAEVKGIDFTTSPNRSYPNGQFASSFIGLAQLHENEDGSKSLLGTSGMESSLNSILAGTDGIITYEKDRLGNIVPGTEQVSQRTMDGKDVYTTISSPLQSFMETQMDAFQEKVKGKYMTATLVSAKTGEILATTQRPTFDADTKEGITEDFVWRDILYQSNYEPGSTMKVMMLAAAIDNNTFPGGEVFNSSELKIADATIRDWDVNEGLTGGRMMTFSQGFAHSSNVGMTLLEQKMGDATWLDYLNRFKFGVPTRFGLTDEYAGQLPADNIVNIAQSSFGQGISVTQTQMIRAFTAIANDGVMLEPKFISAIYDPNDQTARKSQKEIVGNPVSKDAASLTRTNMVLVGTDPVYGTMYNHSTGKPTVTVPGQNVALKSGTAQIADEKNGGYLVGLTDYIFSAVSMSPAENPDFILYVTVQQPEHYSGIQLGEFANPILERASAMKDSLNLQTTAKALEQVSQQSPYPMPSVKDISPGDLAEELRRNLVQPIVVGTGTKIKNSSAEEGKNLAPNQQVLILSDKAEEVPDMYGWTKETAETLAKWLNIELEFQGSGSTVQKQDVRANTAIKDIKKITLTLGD
Description: PBP2x-5204 from Streptococcus pneumonia and N-benzoyl-D-alanyl-thioglycolate S2d[21], [22] were prepared as previously described. All assays with PBP2x 5204 were carried out in 96-well microtiter plates (Brand, Wertheim, Germany). PBP2x 5204 (0.6 µM) was incubated in the presence of the potential inhibitors in 10 mM sodium phosphate buffer (pH 7.0) containing 70 mM D-alanine and 0.01 mg/mL BSA, for 4 h at 25°C. This preincubation was used to also detect slow binding inhibitors. After the preincubation, the RA of PBP2x 5204 was determined. The initial rate of hydrolysis of 1 mM S2d in the presence of 1 mM DTNB was determined by monitoring the increase in absorbance at 412 nm (DTNB: ε[Δ ε] = […]) using a microplate absorbance reader (Power Wave X, Biotek Instruments, Winooski, U.S.A.). The rate of spontaneous hydrolysis of S2d in the presence of the potential inhibitors was also determined in the absence of PBP2x 5204. All of the assays were carried out in triplicate. The determination of the RA of PBP2x 5204 in the absence of inhibitors was carried out six times on each plate. A test compound was considered as an inhibitor if the RA was <80%. In this case, to reveal false positives, the assays were also carried out under the same conditions in the presence of 0.01% Triton X-100. As described in the literature, promiscuous inhibitors (false positives) are slow binding, noncompetitive inhibitors. To avoid detailed kinetic investigations, it is possible to identify such compounds by carrying out the assays in the presence of Triton X-100[14], [19]. Promiscuous inhibitors show no inhibition in the presence of Triton X-100. The IC50 values in the presence of Triton X-100 were determined if the RAs were <50%. (RA: ∼50%, IC50∼c, c: concentration of compound in the assay; RA >50%, IC50 > c). The RA was measured over a range of concentrations, from which the IC50 values were determined by non-linear regression analysis, using Sigma Plot (Systat software) and fitting the data to the equation y = y0+(a×b)/(b+x)[23].

PBP5fm = PBP5fm (Enterococcus faecium, UniProt Q47759); test: PBP5fm enzymatic inhibition assay (fluorescein-labeled ampicillin, residual penicillin binding activity); type: biochemical, Enterococcus faecium D63r
Sequence of PBP5fm (Q47759 entry or part of it): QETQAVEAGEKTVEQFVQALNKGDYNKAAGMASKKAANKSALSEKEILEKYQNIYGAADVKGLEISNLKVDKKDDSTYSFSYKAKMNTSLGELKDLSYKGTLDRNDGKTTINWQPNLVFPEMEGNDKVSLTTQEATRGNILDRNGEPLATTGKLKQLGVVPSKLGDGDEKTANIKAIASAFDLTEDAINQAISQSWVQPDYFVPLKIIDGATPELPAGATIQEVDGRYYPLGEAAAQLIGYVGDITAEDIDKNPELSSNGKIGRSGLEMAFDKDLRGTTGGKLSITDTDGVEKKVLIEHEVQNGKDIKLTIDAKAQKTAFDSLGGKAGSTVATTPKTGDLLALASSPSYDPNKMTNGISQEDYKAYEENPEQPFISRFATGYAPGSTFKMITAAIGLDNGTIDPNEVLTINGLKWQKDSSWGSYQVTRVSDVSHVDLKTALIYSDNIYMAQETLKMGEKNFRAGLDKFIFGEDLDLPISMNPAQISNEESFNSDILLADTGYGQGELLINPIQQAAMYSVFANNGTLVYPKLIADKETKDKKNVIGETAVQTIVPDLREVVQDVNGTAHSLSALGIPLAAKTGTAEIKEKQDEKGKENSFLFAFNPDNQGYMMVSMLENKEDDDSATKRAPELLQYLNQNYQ
Description: as §1, §2

[1] = test system: Bacillus subtilis ATCC 6633; test: In-vitro antibacterial activity (MIC, broth microdilution); type: cell-based; conditions: ATCC6633
Description: (§3) Determination of the antibacterial activities was carried out on microtiter plates, in 200 µL (final volume) of Müeller-Hinton Broth (MHB), following EUCAST (European Committee on Antimicrobial Susceptibility testing)/CLSI (Clinical and Laboratory Standard Institute) recommended procedures, [25]. The compounds were solubilized in MHB, just before use. Inocula were prepared for each strain by resuspending isolated colonies from 18 h cultured plates. Equivalents of 0.5 Mac Farland turbidity standards (approximately 1×10^8 CFU mL^−1) were prepared in saline solution ([…]) and then diluted 200-fold in MBH.

[2] = test system: Citrobacter freundii ATCC 8090; test: as above; type: cell-based; conditions: ATCC8090
Description: as §3

[3] = test system: Enterococcus faecalis ATCC 29212; test: as above; type: cell-based; conditions: ATCC29212
Description: as §3

[4] = test system: Enterococcus faecalis ATCC 7937; test: as above; type: cell-based; conditions: ATCC7937
Description: as §3

[5] = test system: Enterococcus faecium ATCC 19434; test: as above; type: cell-based; conditions: ATCC19434
Description: as §3

[6] = test system: Enterococcus hirae ATCC 8790; test: as above; type: cell-based; conditions: ATCC8790
Description: as §3

[7] = test system: Escherichia coli ATCC 8739; test: as above; type: cell-based; conditions: ATCC8739
Description: as §3

[8] = test system: Klebsiella pneumoniae ATCC 13883; test: as above; type: cell-based; conditions: ATCC13883
Description: as §3

[9] = test system: Listeria innocua ATCC 33090; test: as above; type: cell-based; conditions: ATCC33090
Description: as §3

[10] = test system: Listeria monocytogenes ATCC 14780; test: as above; type: cell-based; conditions: ATCC14780
Description: as §3

[11] = test system: Micrococcus luteus ATCC 9341; test: as above; type: cell-based; conditions: ATCC9341
Description: as §3

[12] = test system: Proteus mirabilis ATCC 29936; test: as above; type: cell-based; conditions: ATCC29936
Description: as §3

[13] = test system: Pseudomonas aeruginosa ATCC 27853; test: as above; type: cell-based; conditions: ATCC27853
Description: as §3

[14] = test system: Staphylococcus aureus ATCC 25923; test: as above; type: cell-based; conditions: ATCC25923
Description: as §3

[15] = test system: Staphylococcus aureus ATCC 43300 (MRSA); test: as above; type: cell-based
Description: as §3

[16] = test system: Staphylococcus aureus mp 1 (inducible MRSA); test: as above; type: cell-based
Description: as §3

[17] = test system: Staphylococcus epidermidis ATCC 12228; test: as above; type: cell-based; conditions: ATCC12228
Description: as §3

[18] = test system: Streptococcus pneumoniae ATCC 33400; test: as above; type: cell-based; conditions: ATCC33400
Description: as §3

[19] = test system: Streptococcus pneumoniae ATCC 49619; test: as above; type: cell-based; conditions: ATCC49619
Description: as §3

[20] = test system: Streptococcus pneumoniae D39; test: as above; type: cell-based
Description: as §3

[21] = test system: panel of five Gram-negative and 15 Gram-positive bacterial strains; test: In-vitro antibacterial activity (MIC), whole panel; type: cell-based; conditions: summary over the whole panel; read-out: MICs for all of the bacterial strains under investigation
Description: as §3

NC(=O)c1cccc(NS(=O)(=O)c2cccc3cccnc23)c1 [compound 2, 3-(Quinoline-8-sulfonamido)benzamide]
930 µM: IC50 (PBP5fm; in the presence of 0.01% Triton X-100)
39%: activity at 1000 µM (PBP5fm; 4 h, residual activity of the enzyme at 1 mM inhibitor, 0.01% Triton X-100, read-out: PBP5fm RA [%])
> 512 µg/mL: MIC [1] | MIC [2] | MIC [3] | MIC [4] | MIC [5] | MIC [6] | MIC [7] | MIC [8] | MIC [9] | MIC [10] | MIC [11] | MIC [12] | MIC [13] | MIC [14] | MIC [15] | MIC [16] | MIC [17] | MIC [18] | MIC [19] | MIC [20] | MIC [21]
123%: PBP2x5204 RA [%] (PBP2x 5204)
58%: remaining activity at 1000 µM (PBP2a)
